Source: patent publication US20240287043A1, “KETOAMIDE DERIVATIVE AND APPLICATION THEREOF” (GUANGDONG RAYNOVENT BIOTECH CO., LTD., priority 2021, published 2024)
Read-outs that look alike come from different tables or passages of the source.

Legend:
[1] = Cytotoxicity assay in MRC5 cells without viral infection (CellTiter Glo); type: cell-based; conditions: human, no viral infection
Source text: The calculation formulas were as below: […]

[2] = in vivo; conditions: male, C57BL/6J, mouse
[3] = tested on: HCoV OC43; test: In vitro anti-coronavirus activity using a cytopathic model (CPE, CellTiter Glo); conditions: Betacoronavirus 1, OC43, MRC5, 120 h
[4] = target: SARS-COV-2 Mpro (Severe acute respiratory syndrome coronavirus 2, UniProt P0DTD1); test: In vitro inhibitory activity against Mpro protease of novel coronavirus (fluorescence substrate assay); type: biochemical; conditions: 25 nM Mpro protein, 25 μM substrate
[5] = male, C57BL/6J, mouse, in vivo

Row | SMILES | CC50 at 5 days [1] | AUC(0-t) ([2]; iv, 3 mg/kg) | AUC(0-t) ([2]; po, 10 mg/kg) | Tmax ([2]; po, 10 mg/kg) | bioavailability ([2]; po, 10 mg/kg) | half-life ([2]; po, 10 mg/kg) | EC50 [3] | IC50 [4] | other results
1 | O=C(NC1CCCC1)C(=O)[C@H](C[C@@H]1CCNC1=O)NC(=O)[C@@H]1[C@H]2CCC[C@H]2CN1C(=O)[C@@H](NC(=O)C(F)(F)F)C1CCCCC1 [Compound 1] | > 10000 nM | 7.79 µM·h | 5.7 µM·h | 2 h | 22% | 2.63 h | 259 nM |  | Vd ([2]; iv, 3 mg/kg): 1.38 L/kg; clearance ([2]; iv, 3 mg/kg): 10.1 mL/min/kg; concentration at 0.083 h ([2]; iv, 3 mg/kg): 6770 nM; concentration at 0.25 h ([2]; iv, 3 mg/kg): 5530 nM; concentration at 0.5 h ([2]; iv, 3 mg/kg): 3930 nM; concentration at 1 h ([2]; iv, 3 mg/kg): 1960 nM; concentration at 2 h ([2]; iv, 3 mg/kg): 867 nM; concentration at 4 h ([2]; iv, 3 mg/kg): 293 nM; concentration at 8 h ([2]; iv, 3 mg/kg): 89.7 nM; concentration at 24 h ([2]; iv, 3 mg/kg): 6.59 nM; half-life ([2]; iv, 3 mg/kg): 3.8 h; Cmax ([2]; po, 10 mg/kg): 1290 nM; concentration at 0.25 h ([2]; po, 10 mg/kg): 533 nM; concentration at 0.5 h ([2]; po, 10 mg/kg): 706 nM; concentration at 1 h ([2]; po, 10 mg/kg): 952 nM; concentration at 2 h ([2]; po, 10 mg/kg): 1290 nM; concentration at 4 h ([2]; po, 10 mg/kg): 661 nM; concentration at 6 h ([2]; po, 10 mg/kg): 291 nM; concentration at 8 h ([2]; po, 10 mg/kg): 187 nM; concentration at 24 h ([2]; po, 10 mg/kg): 2.69 nM
2 | O=C(NCc1ccccc1)C(=O)[C@H](C[C@@H]1CCNC1=O)NC(=O)[C@@H]1[C@H]2CCC[C@H]2CN1C(=O)[C@@H](NC(=O)C(F)(F)F)C1CCCCC1 [Compound 2] | > 10000 nM |  |  |  |  |  | 368 nM | 11 nM | 
3 | CC(C)(C)NC(=O)C(=O)[C@H](C[C@@H]1CCNC1=O)NC(=O)[C@@H]1[C@H]2CCC[C@H]2CN1C(=O)[C@@H](NC(=O)C(F)(F)F)C1CCCCC1 [Compound 3] | > 10000 nM | 30.6 µM·h | 33 µM·h | 1.5 h | 32% | 5.4 h | 146 nM | 25 nM | Cl ([5]; iv, 3 mg/kg): 2.50 mL/min/kg; T1/2 ([5]; iv, 3 mg/kg): 6.24 h; Vdss ([5]; iv, 3 mg/kg): 1.27 L/kg; Cmax ([5]; po, 10 mg/kg): 4810 nM
4 | CC(C)(C)NC(=O)C(=O)[C@H](C[C@@H]1CCNC1=O)NC(=O)[C@@H]1[C@H]2CCC[C@H]2CN1C(=O)[C@@H](NC(=O)C(F)(F)F)C1CCC1 [Compound 4] | > 10000 nM |  |  |  |  |  | 823 nM | 104 nM | 
5 | CC(C)(C)NC(=O)C(=O)[C@H](C[C@@H]1CCNC1=O)NC(=O)[C@@H]1[C@H]2CCC[C@H]2CN1C(=O)[C@@H](NC(=O)C(F)(F)F)C1CCCC1 [Compound 5] | > 10000 nM |  |  |  |  |  | 368 nM | 50 nM | 
6 | CC1([C@H](NC(=O)C(F)(F)F)C(=O)N2C[C@@H]3CCC[C@@H]3[C@H]2C(=O)N[C@@H](C[C@@H]2CCNC2=O)C(=O)C(=O)NC2CCCC2)CCCCC1 [Compound 6] |  |  |  |  |  |  |  | 12 nM | 
7 | CC(C)(C)[C@H](NC(=O)C(F)(F)F)C(=O)N1C[C@H]2[C@@H]([C@H]1C(=O)N[C@H](C#N)CC1CCNC1=O)C2(C)C (stereo partly shown) [PF-07321332, reference compound] |  | 3.33 µM·h | 3.58 µM·h | 0.292 h | 32.7% | 1.1 h |  |  | Vd ([2]; iv, 3 mg/kg): 0.456 L/kg; clearance ([2]; iv, 3 mg/kg): 30.2 mL/min/kg; half-life ([2]; iv, 3 mg/kg): 0.71 h; Cmax ([2]; po, 10 mg/kg): 2720 nM
